Measurements reported in US20040132079A1, “Assays relating to Toll-like receptor activity” (3M Innovative Properties Company, priority 2002, published 2004).

Molecular target: T1, human TLR6 (Homo sapiens, UniProt Q9Y2C9)
T1 construct: expressed in transfected cells; host or cells: Namalwa cells (ATCC CRL-1432), co-transfected with pIFN-α1-luc and pCI-TLR6, G418-selected
T1 sequence (Q9Y2C9 32-796): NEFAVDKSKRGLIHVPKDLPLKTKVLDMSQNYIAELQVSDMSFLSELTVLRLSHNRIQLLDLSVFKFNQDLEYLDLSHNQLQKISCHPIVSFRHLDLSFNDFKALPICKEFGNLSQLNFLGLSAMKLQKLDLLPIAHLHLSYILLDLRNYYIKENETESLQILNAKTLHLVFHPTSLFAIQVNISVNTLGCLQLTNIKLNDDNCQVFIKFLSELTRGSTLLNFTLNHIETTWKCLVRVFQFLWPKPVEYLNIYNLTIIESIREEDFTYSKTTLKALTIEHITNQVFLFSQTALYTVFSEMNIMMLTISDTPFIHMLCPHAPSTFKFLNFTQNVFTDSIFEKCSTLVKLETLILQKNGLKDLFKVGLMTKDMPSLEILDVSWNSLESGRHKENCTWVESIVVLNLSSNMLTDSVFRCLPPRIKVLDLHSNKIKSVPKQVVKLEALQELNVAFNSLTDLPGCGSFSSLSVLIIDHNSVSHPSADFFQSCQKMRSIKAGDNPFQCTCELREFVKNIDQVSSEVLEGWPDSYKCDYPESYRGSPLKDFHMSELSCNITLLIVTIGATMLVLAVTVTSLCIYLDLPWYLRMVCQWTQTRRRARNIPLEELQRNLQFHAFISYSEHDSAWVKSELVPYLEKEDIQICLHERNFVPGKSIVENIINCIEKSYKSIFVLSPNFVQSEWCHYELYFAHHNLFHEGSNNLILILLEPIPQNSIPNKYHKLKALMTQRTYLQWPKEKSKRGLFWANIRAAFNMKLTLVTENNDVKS
Assay: Luciferase induction off of the IFN-α1 promoter in pIFN-α1-luc/pCI-TLR6 co-transfected Namalwa cells
Format: cell-based
Settings: IRM compound 10 μM, 18 hours, compared to DMSO negative control, representative experiment
From the text: The vector pIFN-α1-luc was constructed by inserting BglII sites at both ends of the human IFN-α1 promoter (SEQ ID NO:21). The BglII sites were inserted into the IFN-α1 promoter and the sequence was amplified using the primer pair of SEQ ID NO:22 and SEQ ID NO:23. The amplified IFN-α1 promoter was cloned into the pGL3-Enhancing vector (Promega Corp., Madison, Wis.) at the BglII site.
The vector pCI-TLR6 was constructed by inserting SEQ ID NO:11 (GenBank Accession No. NM 006068), which includes the human TLR6 coding sequence, into the pCI-neo mammalian expression vector (Promega Corp.) at the vector's NheI and MluI restriction sites.
Burkitt's Lymphoma lymphoblastoid Namalwa cells (ATCC Accession No. CRL-1432) were grown by incubation in culture medium overnight. Cells were harvested by centrifugation in a tabletop centrifuge (1200 RPM for 5 minutes), and then resuspended in phosphate buffered sucrose to a concentration of 1.3×10^7 cells per milliliter.
For each transfection, a 750 μL aliquot of the cell suspension was placed in an electroporation cuvette with 4 mm gaps. 10 μg of the pIFN-α1-luc vector and 10 μg of the pCI-TLR6 vector were added to the electroporation cuvette. The cell and vector mixtures were incubated at room temperature for 5 minutes. The cells were electroporated using a BioRad Gene Pulser (BioRad Laboratories, Hercules, Calif.) set to at 500 μF capacitance and […], then incubated at room temperature for 5 minutes.
The electroporated cells were suspended in 10 mLs of culture medium and incubated overnight. Dead cells and debris were removed after 24 hours using a MACS Dead Cell Removal kit (Miltenyi Biotec, Auburn, Calif.). Cells were resuspended in 10 mLs of culture medium and incubated for an additional 24 hours.
Transfected cells were selected by adding G418 (Promega Corp., Madison, Wis.) to a final concentration of 1 mg/mL and incubating the cells for seven days.
The selected transfected cells were counted and resuspended to a concentration of 1×10^6 cell per mL in culture medium. 100 μl aliquots of cells were placed in the wells of a white-walled, white-bottomed 96-well plate (Corning, Inc. Corning, N.Y.). 1.0 μL of an IRM compound from Table 1 (prepared at 1 mM in 100% DMSO) was added to some cell aliquots so that the final concentration of IRM compound was 10 μM. As a positive control, some cell aliquots were incubated with Sendai virus instead of IRM compound. As a negative control, some cell aliquots were incubated with DMSO without IRM compound. In all cases, the cells were incubated for 18 hours.
The plates were equilibrated to room temperature before 1 volume of reconstituted LucLight Plus (Packard Instruments, Meriden, Conn.) was added to each aliquot of cells. Each well of the plate was read on an LJL Analyst (LJL Biosystems, Inc., Sunnyvale, Calif.) set with a 5 minute dark adapt. The data are expressed as the fold increase in luciferase induction off of the IFN-α1 promoter in cell aliquots incubated with the indicated stimulant compared to the negative control in which the cell aliquots were incubated with only DMSO.

SMILES	Fold Increase in Luciferase Induction
CCOCc1nc2c(N)nc3c(c2n1CC(C)(C)O)CCCC3 [IRM1, 4-amino-2-ethoxymethyl-α,α-dimethyl-6,7,8,9-tetrahydro-1H-imidazo[4,5-c]quinoline-1-ethanol]	3.6 fold
Cc1nc2c(N)nc3ccccc3c2n1CC(C)(C)O [IRM2, 4-amino-α,α,2-trimethyl-1H-imidazo[4,5-c]quinoline-1-ethanol]	2.7 fold
CCCCc1nc2c(N)nc3ccccc3c2n1CCCCNS(C)(=O)=O [IRM3, N-[4-(4-amino-2-butyl-1H-imidazo[4,5-c]quinolin-1-yl)butyl]methanesulfonamide]	2.6 fold
Nc1nc2ccccc2c2c1ncn2CCOCCCc1cccnc1 [IRM4, 1-{2-[3-(3-pyridyl)-propoxy]ethyl}-1H-imidazo[4,5-c]quinolin-4-amine]	4.0 fold
CCCCc1nc2c(N)nc3cccnc3c2n1CC(C)C [IRM5, 2-butyl-1-(2-methylpropyl)-1H-imidazo[4,5-c][1,5]naphthyridin-4-amine]	3.2 fold
CCCCc1nc2c(N)nc3c(c2n1CC(C)C)NCCC3 [IRM6, 2-butyl-6,7,8,9-tetrahydro-1-(2-methylpropyl)-1H-imidazo[4,5-c][1,5]naphthyridin-4-amine]	2.9 fold
COCCc1nc2c(N)nc3ccccc3c2n1CCCCNC(=O)c1ccc(-n2cccc2)nc1 [IRM7, N^3-{4-[4-amino-2-(2-methoxyethyl)-1H-imidazo[4,5-c]quinolin-1-yl]butyl}-6-(1H-1-pyrrolyl)nicotinamide]	3.2 fold
CCc1nc2c(N)nc3ccccc3c2n1CCCCCS(C)(=O)=O [IRM8, 2-ethyl-1-[5-(methylsulfonyl)-pentyl]-1H-imidazo[4,5-c]quinolin-4-amine]	2.3 fold
